Measured values from US20230091047A1 (priority 2019, published 2023).
Like-named read-outs stand apart in the source and are kept apart here.

What was measured:
in vitro = type: cell-based; conditions: human, HepG2 or HepG2.117 cells, ATPlite, 3-days incubation (not marked with *), mean value
Outline: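 Luminescent ATP quantitation served as the viability endpoint following a 3- or 4-day incubation with test compounds.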

[1] = tested on: HBV (HepG2.117 cell line, inducibly HBV producing); test: Anti-HBV activity: intracellular HBV DNA by real-time PCR in HepG2.117 cells after 3 days of treatment; type: cell-based, hepatitis B virus; conditions: HepG2.117 cells, intracellular HBV DNA by real-time PCR, 3 days of treatment, mean value, read-out: EC50 (μM, mean value)
Outline: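 HepG2.117 cells (Tet-off, inducible HBV production) were induced to replicate HBV by doxycycline absence, then treated with serially diluted compound for 3 days. Activity was quantified as intracellular HBV DNA by real-time PCR using an HBV-specific primer set and probe.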

[2] = Hepatitis B virus, HepG2.117, 72 h

Compound	CC50 at 3 days (in vitro)	EC50 [1, 2]	EC50 [1]
CNC(=O)c1ccc(-n2c(NC(C)c3ccccc3OC(F)F)nc3c(c2=O)C[C@@H](C)N(C(=O)c2ccc(Cl)c(Cl)c2)C3)cc1 (stereo partly shown) [Compound C438]	31.2 µM	0.4 µM	–
CC(C)Nc1nc2c(c(=O)n1-c1cccc(-n3ccnn3)c1)C[C@@H](C)N(C(=O)c1ccc(Cl)c(Cl)c1)C2 [Compound C442]	> 50 µM	0.21 µM	–
CNC(=O)c1ccc(-n2c(N[C@@H](C)c3ccccc3C(F)(F)F)nc3c(c2=O)C[C@@H](C)N(C(=O)c2ccc(Cl)c(Cl)c2)C3)cc1 [Compound C443]	7.2 µM	0.45 µM	–
CNC(=O)c1ccc(-n2c(N3CC4CC3(C)C4)nc3c(c2=O)C[C@@H](C)N(C(=O)c2ccc(Cl)c(Cl)c2)C3)cc1 [Compound C444]	37.6 µM	0.06 µM	–
CNC(=O)c1ccc(-n2c(N[C@@H](C)c3ccccc3Cl)nc3c(c2=O)C[C@@H](C)N(C(=O)c2ccc(Cl)c(Cl)c2)C3)cc1 [Compound C445]	24.1 µM	0.28 µM	–
CNC(=O)c1ccc(-n2c(O[C@@H](C)C(C)C)nc3c(c2=O)C[C@@H](C)N(C(=O)c2ccc(Cl)c(Cl)c2)C3)cc1 [Compound C446]	27.6 µM	0.03 µM	–
CNc1noc2cc(-n3c(NC(C)C)nc4c(c3=O)C[C@@H](C)N(C(=O)c3ccc(Cl)c(Cl)c3)C4)c(C)cc12 [Compound C447]	> 50 µM	–	0.1 µM
CC(C)Nc1nc2c(c(=O)n1-c1cccc(-c3cn[nH]n3)c1)C[C@@H](C)N(C(=O)c1ccc(Cl)c(Cl)c1)C2 [Compound C448]	27.9 µM	0.12 µM	–
CNC(=O)c1ccc(-n2c(NCC34C5C6C7C5C3C7C64)nc3c(c2=O)C[C@@H](C)N(C(=O)c2ccc(Cl)c(Cl)c2)C3)cc1 (stereo partly shown) [Compound C451]	> 50 µM	0.41 µM	–
CNC(=O)c1ccc(-n2c(N[C@H]3C[C@@H]3c3ccc(OC)cc3)nc3c(c2=O)C[C@@H](C)N(C(=O)c2ccc(Cl)c(Cl)c2)C3)cc1 [Compound C452]	> 50 µM	–	2.91 µM
CC(C)Nc1nc2c(c(=O)n1-c1ccc(-c3nn[nH]n3)cc1)C[C@@H](C)N(C(=O)c1ccc(Cl)c(Cl)c1)C2 [Compound C453]	> 50 µM	5.81 µM	–
CNC(=O)C12C3C4C1C1C2C3C41n1c(NC(C)C)nc2c(c1=O)C[C@@H](C)N(C(=O)c1ccc(Cl)c(Cl)c1)C2 (stereo partly shown) [Compound C456]	> 50 µM	0.4 µM	–
CNC(=O)c1ccc(-n2c(N(C)Cc3cccc(OC)c3)nc3c(c2=O)C[C@@H](C)N(C(=O)c2ccc(Cl)c(Cl)c2)C3)cc1 [Compound C457]	38.1 µM	0.1 µM	–
CNC(=O)c1ccc(-n2c(O[C@H](C)C(C)C)nc3c(c2=O)C[C@@H](C)N(C(=O)c2ccc(Cl)c(Cl)c2)C3)cc1 [Compound C458]	24.8 µM	0.06 µM	–
CNC(=O)c1ccc(-n2c(NC(C)C(C)(C)C)nc3c(c2=O)C[C@@H](C)N(C(=O)c2ccc(Cl)c(Cl)c2)C3)cc1 (stereo partly shown) [Compound C459]	28.6 µM	0.24 µM	–
CC(C)Nc1nc2c(c(=O)n1-c1ccc(-n3cnnn3)cc1)C[C@@H](C)N(C(=O)c1ccc(Cl)c(Cl)c1)C2 [Compound C460]	> 50 µM	0.09 µM	–
CNC(=O)c1ccc(-n2c(NC34C5C6C7C5C3C7C64)nc3c(c2=O)C[C@@H](C)N(C(=O)c2ccc(Cl)c(Cl)c2)C3)cc1 (stereo partly shown) [Compound C461]	> 50 µM	1.45 µM	–
CNC(=O)c1ccc(-n2c(NCc3ccn(-c4ccc(F)cc4)n3)nc3c(c2=O)C[C@@H](C)N(C(=O)c2ccc(Cl)c(Cl)c2)C3)cc1 [Compound C465]	22.6 µM	0.65 µM	–
CNC(=O)c1ccc(-n2c(N[C@@H]3CCO[C@H]3c3ccccc3)nc3c(c2=O)C[C@@H](C)N(C(=O)c2ccc(Cl)c(Cl)c2)C3)cc1 [Compound C466]	31.5 µM	1.43 µM	–
CNC(=O)c1ccc(-n2c(N3CCCCCC3)nc3c(c2=O)C[C@@H](C)N(C(=O)c2ccc(Cl)c(Cl)c2)C3)cc1 [Compound C467]	30 µM	0.1 µM	–
CNC(=O)c1ccc(-n2c(NCc3ccc(-c4nc[nH]n4)cc3)nc3c(c2=O)C[C@@H](C)N(C(=O)c2ccc(Cl)c(Cl)c2)C3)cc1 [Compound C468]	> 50 µM	18.8 µM	–
CNC(=O)c1ccc(-n2c(NCc3cn(C)nn3)nc3c(c2=O)C[C@@H](C)N(C(=O)c2ccc(Cl)c(Cl)c2)C3)cc1 [Compound C469]	> 50 µM	> 25 µM	–
CNC(=O)c1ccc(-n2c(N3CCOC(C)C3)nc3c(c2=O)C[C@@H](C)N(C(=O)c2ccc(Cl)c(Cl)c2)C3)cc1 (stereo partly shown) [Compound C470]	> 50 µM	> 25 µM	–
CNC(=O)c1ccc(-n2c(NC(C)C)nc3c(c2=O)C[C@@H](C)N(C(=O)c2cc4c(Br)c(C)ccc4[nH]2)C3)cc1 [Compound C471]	21.6 µM	0.25 µM	–

Compound	CC50 at 3 days (in vitro)	EC50 [1, 2]	EC50 [1]
CNC(=O)c1ccc(-n2c(NC(C)C)nc3c(c2=O)C[C@@H](C)N(C(=O)c2cc(F)c(Cl)cc2Cl)C3)cc1 [Compound C472]	> 50 µM	0.92 µM	–
CNC(=O)c1ccc(-n2c(NC(C)C)nc3c(c2=O)C[C@@H](C)N(C(=O)c2n[nH]c4ccc(Cl)cc24)C3)cc1 [Compound C473]	> 50 µM	> 25 µM	–
CNC(=O)c1ccc(-n2c(NC(C)C)nc3c(c2=O)C[C@@H](C)N(C(=O)c2ccc4nnn(C)c4c2)C3)cc1 [Compound C474]	> 50 µM	> 25 µM	–
CNC(=O)c1ccc(-n2c(NC(C)C)nc3c(c2=O)C[C@@H](C)N(C(=O)c2ccc(OC(F)F)c(Cl)c2)C3)cc1 [Compound C475]	> 50 µM	0.07 µM	–
CNC(=O)c1ccc(-n2c(NC(C)C)nc3c(c2=O)C[C@@H](C)N(C(=O)c2cc(F)c(C(F)(F)F)c(F)c2)C3)cc1 [Compound C476]	> 50 µM	0.12 µM	–
CNC(=O)c1ccc(-n2c(NC(C)C)nc3c(c2=O)C[C@@H](C)N(C(=O)c2nn(C)c4ccccc24)C3)cc1 [Compound C477]	> 50 µM	10.2 µM	–
CNC(=O)c1ccc(-n2c(NC(C)C)nc3c(c2=O)C[C@@H](C)N(C(=O)c2ccc(F)c(Cl)c2)C3)cc1 [Compound C478]	> 50 µM	1.28 µM	–
CNC(=O)c1ccc(-n2c(N(C)Cc3cn(C)nn3)nc3c(c2=O)C[C@@H](C)N(C(=O)c2ccc(Cl)c(Cl)c2)C3)cc1 [Compound C479]	> 50 µM	3.81 µM	–
CNC(=O)c1ccc(-n2c(NC3COC(C)(C)C3)nc3c(c2=O)C[C@@H](C)N(C(=O)c2ccc(Cl)c(Cl)c2)C3)cc1 (stereo partly shown) [Compound C480]	> 50 µM	10.3 µM	–
CNC(=O)c1ccc(-n2c(NC(C)Cn3cnnc3)nc3c(c2=O)C[C@@H](C)N(C(=O)c2ccc(Cl)c(Cl)c2)C3)cc1 (stereo partly shown) [Compound C481]	> 50 µM	> 25 µM	–
CNC(=O)c1ccc(-n2c(NCC(CO)C3CC3)nc3c(c2=O)C[C@@H](C)N(C(=O)c2ccc(Cl)c(Cl)c2)C3)cc1 (stereo partly shown) [Compound C482]	> 50 µM	8.34 µM	–
CNC(=O)c1ccc(-n2c(NCc3nnc4n3CCC4)nc3c(c2=O)C[C@@H](C)N(C(=O)c2ccc(Cl)c(Cl)c2)C3)cc1 [Compound C483]	> 25 µM	> 12.5 µM	–
CNC(=O)c1ccc(-n2c(NC(C)c3ncn(C)n3)nc3c(c2=O)C[C@@H](C)N(C(=O)c2ccc(Cl)c(Cl)c2)C3)cc1 (stereo partly shown) [Compound C484]	> 50 µM	3.09 µM	–
CNC(=O)c1ccc(-n2c(NCc3ccccc3-n3ccnc3)nc3c(c2=O)C[C@@H](C)N(C(=O)c2ccc(Cl)c(Cl)c2)C3)cc1 [Compound C485]	24.9 µM	11.9 µM	–
CNC(=O)c1ccc(-n2c(NCc3nc(-c4ccccc4)n[nH]3)nc3c(c2=O)C[C@@H](C)N(C(=O)c2ccc(Cl)c(Cl)c2)C3)cc1 [Compound C486]	> 50 µM	17.3 µM	–
CNC(=O)c1ccc(-n2c(N3C[C@@H](C#N)[C@H](c4ccccc4)C3)nc3c(c2=O)C[C@@H](C)N(C(=O)c2ccc(Cl)c(Cl)c2)C3)cc1 [Compound C487]	> 50 µM	0.25 µM	–
CNC(=O)c1ccc(-n2c(NCc3cccc(-c4nccn4C)c3)nc3c(c2=O)C[C@@H](C)N(C(=O)c2ccc(Cl)c(Cl)c2)C3)cc1 [Compound C488]	28.2 µM	7.31 µM	–
CNC(=O)c1ccc(-n2c(NC(C)c3cn(C)nn3)nc3c(c2=O)C[C@@H](C)N(C(=O)c2ccc(Cl)c(Cl)c2)C3)cc1 (stereo partly shown) [Compound C489]	> 50 µM	> 25 µM	–
CNC(=O)c1ccc(-n2c(NCc3csc(C4CC4)n3)nc3c(c2=O)C[C@@H](C)N(C(=O)c2ccc(Cl)c(Cl)c2)C3)cc1 [Compound C490]	28.4 µM	0.89 µM	–
CNC(=O)c1ccc(-n2c(NC(C)C)nc3c(c2=O)C[C@@H](C)N(C(=O)c2ccc4cncc(Br)c4c2)C3)cc1 [Compound C491]	> 50 µM	15.3 µM	–
CNC(=O)c1ccc(-n2c(NC(C)C)nc3c(c2=O)C[C@@H](C)N(C(=O)c2cc(C)cc(F)c2)C3)cc1 [Compound C492]	> 50 µM	1.98 µM	–
CNC(=O)c1ccc(-n2c(NC(C)C)nc3c(c2=O)C[C@@H](C)N(C(=O)c2[nH]nc(C(F)(F)F)c2C)C3)cc1 [Compound C493]	> 50 µM	15.2 µM	–
CNC(=O)c1ccc(-n2c(NC(C)C)nc3c(c2=O)C[C@@H](C)N(C(=O)c2ccc4c(c2)CNC4=O)C3)cc1 [Compound C494]	> 50 µM	2.64 µM	–
